The values below come from ChEMBL document CHEMBL4251644, “Synthesis and biological characterization of novel rose bengal derivatives with improved amphiphilicity for sono-photodynamic therapy” (Eur J Med Chem, 2018).

pIC50: −log10 of the molar value. The source made the active and inactive calls. No cut-off for these calls is given here. A value given as a limit tells only on which side of the number the result lay.

Series [1] concerns B16-F10. As to the kind of experiment: Photodynamic anticancer activity in mouse B16F10 cells preincubated for 2 hrs followed by light exposure at 27 J/cm2 for 30 mins and subsequent incubation for 24 hrs by MTT assay. As to conditions: B16-F10, light or radiation study.
Series [2] has as its system MCF7. As to the kind of experiment: Toxicity in human MCF7 cells up to 5 uM incubated in dark for 24 hrs by MTT assay. It is filed as cell-based. As to conditions: mcf7, 24 h.
In series [3] the test system is B16-F10. As to the kind of experiment: Toxicity in mouse B16F10 cells up to 5 uM incubated in dark for 24 hrs by MTT assay. It is filed as cell-based. Conditions: b16-f10, 24 h.
A short description of series [4]: Drug uptake in mouse B16F10 cells assessed as localization in lysosomes at 5 uM after 1.5 hrs by LysoTracker staining-based fluorescence assay. It is filed as ADME, subcellular, Lysosome. As to conditions: b16-f10, 1.5 h.
Series [5] has as its system HepG2. The series can be described thus: Toxicity in human HepG2 cells up to 5 uM incubated in dark for 24 hrs by MTT assay. It is filed as cell-based. As to conditions: hepg2, 24 h.
Series [6] deals with MCF7. The series can be described thus: Photodynamic anticancer activity in human MCF7 cells preincubated for 2 hrs followed by light exposure at 27 J/cm2 for 30 mins and subsequent incubation for 24 hrs by MTT assay. As to conditions: MCF7, light or radiation study.
Series [7] in a line: Drug uptake in mouse B16F10 cells assessed as localization in mitochondria at 5 uM after 1.5 hrs by MitoTracker Green staining-based fluorescence assay. The class given is ADME. As to conditions: b16-f10, 1.5 h.
The nature of series [8]: Octanol-water partition coefficient, log P of the compound after 10 mins. It is filed as physicochemical.
A short description of series [9]: Drug uptake in human HepG2 cells at 5 uM after 2 hrs by confocal microscopy. The class given is ADME, cell-based. Conditions: hepg2, 2 h.
The subject of series [10] is HepG2. The series can be described thus: Photodynamic anticancer activity in human HepG2 cells preincubated for 2 hrs followed by light exposure at 27 J/cm2 for 30 mins and subsequent incubation for 24 hrs by MTT assay. Conditions: HepG2, light or radiation study.
In series [11] the test system is HepG2. The series can be described thus: In vitro sonodynamic anticancer activity against human HepG2 cells at 25 uM preincubated for 2 hrs followed by exposure to ultrasound at 1.0 MHz and 2 W/cm2 intensity for 3 mins and subsequent incubation for 24 hrs by MTT assay. It is filed as functional, cell-based.
For series [12], the system named is HepG2. The series can be described thus: Induction of intracellular ROS generation in human HepG2 cells at 1 uM preincubated for 2 hrs followed by exposure to ultrasound at 1.0 MHz and 2 W/cm2 intensity for 3 mins by DCFH-DA staining-based fluorescence analysis. It is filed as functional, cell-based.
Series [13] relates to HepG2. The series can be described thus: In vitro sono-photodynamic anticancer activity against human HepG2 cells at 0.5 uM preincubated for 2 hrs followed by exposure to ultrasound at 1.0 MHz and 2 W/cm2 intensity for 3 mins followed by immediate irradiation with light at 27 J/cm2 for 30 mins and subsequent incubation for 24 hrs by MTT assay. The class given is functional, cell-based.

Series [14] relates to HepG2. As to the kind of experiment: Induction of intracellular ROS generation in human HepG2 cells at 1 uM preincubated for 2 hrs followed by light exposure at 27 J/cm2 for 30 mins by DCFH-DA staining-based fluorescence analysis. The class given is functional, cell-based.
In series [15] the test system is HepG2. The series can be described thus: Induction of intracellular ROS generation in human HepG2 cells at 1 uM preincubated for 2 hrs followed by exposure to ultrasound at 1.0 MHz and 2 W/cm2 intensity for 3 mins followed by immediate irradiation with light at 27 J/cm2 for 30 mins by DCFH-DA staining-based fluorescence analysis. It is filed as functional, cell-based.

On to `O=C(CCCCCCCOC(=O)c1c(Cl)c(Cl)c(Cl)c(Cl)c1-c1c2cc(I)c(=O)c(I)c-2oc2c(I)c(O)c(I)cc12)Nc1cccc2ccccc12`, for which the values for the pIC50 in the series with B16-F10 [1], with MCF7 [6] and in the series with HepG2 [10] were 5.84, 5.90 and 6.06, respectively. Moreover, the Activity result in the series with MCF7 [2], in the series on B16-F10 [3] and in the series on HepG2 [5] was “Non-Toxic” each time. Further, the Drug uptake result in [4], in series [7] and in series [9] was “Active” in each case. In series [8], this compound had a log partition coefficient (logP) at 10 min of 0.94. The outcome with HepG2 [11] was inactive.
As for `COCCOCCOC(=O)CCCCCCCOC(=O)c1c(Cl)c(Cl)c(Cl)c(Cl)c1-c1c2cc(I)c(=O)c(I)c-2oc2c(I)c(O)c(I)cc12`, the pIC50 in the series with B16-F10 [1] was 6.11; in the series on MCF7 [6] it was 6.34; with HepG2 [10] it was 6.55. In addition, the Activity result in the series on MCF7 [2], in the series with B16-F10 [3] and in the series with HepG2 [5] was “Non-Toxic” throughout. Also, the Drug uptake result in series [4], in series [7] and in series [9] was “Active” throughout. In addition, the outcome in the series on HepG2 [12] was inactive. Also, the result with HepG2 [13], in the series on HepG2 [14], with HepG2 [15] and in the series with HepG2 [11] was Active. This compound also yielded a logP at 10 min in [8] of 0.92.
On to `COCCOCCOCCOCCOC(=O)CCCCCCCOC(=O)c1c(Cl)c(Cl)c(Cl)c(Cl)c1-c1c2cc(I)c(=O)c(I)c-2oc2c(I)c(O)c(I)cc12`, for which the negative logarithm of the IC50 (pIC50) in the series on B16-F10 [1] is 5.91; in the series on MCF7 [6], 5.90; in the series with HepG2 [10] it was 6.17. The Activity result in the series with MCF7 [2], in the series with B16-F10 [3] and in the series on HepG2 [5] was “Non-Toxic” in each case. Moreover, the Drug uptake entry in series [4], in series [7] and in series [9] was “Active” each time. The compound also came in with a lipophilicity (logP) at 10 min in series [8] of 0.8. Further, the outcome in the series on HepG2 [11] was Active.
As for `O=C(O)CCCCCCCOC(=O)c1c(Cl)c(Cl)c(Cl)c(Cl)c1-c1c2cc(I)c(=O)c(I)c-2oc2c(I)c(O)c(I)cc12`, the pIC50 in the series with B16-F10 [1] was 5.66; with MCF7 [6] it was 5.54; in the series with HepG2 [10], 5.67. Moreover, the Activity entry with MCF7 [2], in the series with B16-F10 [3] and in the series with HepG2 [5] was “Non-Toxic” each time. Besides, the Drug uptake entry in [4], in series [7] and in series [9] was “Active” each time. Further, the log partition coefficient (logP) at 10 min in series [8] amounted to 0.91.
For `O=C([O-])c1c(Cl)c(Cl)c(Cl)c(Cl)c1-c1c2cc(I)c(=O)c(I)c-2oc2c(I)c([O-])c(I)cc12.[Na+].[Na+]` [ROSE BENGAL SODIUM], the pIC50 in the series on B16-F10 [1], with MCF7 [6] and with HepG2 [10] was < 5.30 in each case. Moreover, the Activity result in the series with MCF7 [2], in the series on B16-F10 [3] and with HepG2 [5] was “Non-Toxic” each time. For the same compound, the Drug uptake entry in series [4], in series [7] and in series [9] was “Active” each time. Moreover, the logP at 10 min in series [8] is -0.56.
As for `O=C(CCCCCCCOC(=O)c1c(Cl)c(Cl)c(Cl)c(Cl)c1-c1c2cc(I)c(=O)c(I)c-2oc2c(I)c(O)c(I)cc12)Nc1cccc2cccnc12`, the negative-log IC50 (pIC50) in the series on B16-F10 [1] is 5.92; in the series on MCF7 [6] it was 6.07; with HepG2 [10], 6.21. The Activity entry in the series with MCF7 [2], in the series on B16-F10 [3] and in the series with HepG2 [5] was “Non-Toxic” in each case. Besides, the Drug uptake result in series [4], in series [7] and in series [9] was “Active” in each case. The logP at 10 min in [8] stood at 1.21. Also, the result in the series with HepG2 [11] was inactive.
